pIC50: −log10 of the molar value.
Test system: THP-1
Assay: Cytotoxicity towards the acute monocytic leukemia cell line (THP-1)
Format: functional, cell-based
Conditions: Homo sapiens

Row | SMILES | pIC50
1 | CC(C)(C)[Si](OC[C@H]1CCC[C@]12CCC[C@@H]1CCCC(=O)N12)(c1ccccc1)c1ccccc1 | 4.15
2 | O=C1CCC[C@H]2CCC[C@]3(CCC[C@@H]3CO)N12 | < 4.00
3 | CCOC(=O)C[C@H]1CCC[C@]2(CCC[C@@H]2CO[Si](c2ccccc2)(c2ccccc2)C(C)(C)C)N1 | 4.40
4 | CCO/C(O)=C/C1=N[C@]2(CCC1)CCC[C@@H]2CO | < 4.00
5 | COC(=O)C1CC[C@H]2CCC[C@]3(CCC[C@@H]3CO)N2C1=O (some centres not stated) | < 4.00
6 | CC(C)(C)[Si](OC[C@H]1CCC[C@]12CCC[C@@H]1CCC(CO)CN12)(c1ccccc1)c1ccccc1 (some centres not stated) | 4.49
7 | COC(=O)C1CC[C@H]2CCC[C@]3(CCC[C@@H]3CO[Si](c3ccccc3)(c3ccccc3)C(C)(C)C)N2C1=O (some centres not stated) | < 4.00
8 | N#CC1=CC[C@H]2CCC[C@]3(CCC[C@@H]3CO)N2C1=O | < 4.00
9 | COC(=O)C1=CC[C@H]2CCC[C@]3(CCC[C@@H]3CO[Si](c3ccccc3)(c3ccccc3)C(C)(C)C)N2C1=O | 5.30
10 | CC(C)(C)[Si](OC[C@H]1CCC[C@]12CCC[C@H](CCO)N2)(c1ccccc1)c1ccccc1 | 5.05
11 | O=C1OC[C@H]2CCC[C@]23CCC[C@H](CCO)N13 | < 4.00
12 | CC(=O)N1[C@@H](CCO)CCC[C@]12CCC[C@@H]2CO[Si](c1ccccc1)(c1ccccc1)C(C)(C)C | 4.60
13 | CCOC(=O)C[C@@H]1CCC[C@@]23CCC[C@@H]2CON13 | < 4.00
14 | O=C1OCC[C@H]2CCC[C@]3(CCC[C@@H]3CO)N12 | < 4.00
15 | CCO/C(O)=C/C1=N[C@]2(CCC1)CCC[C@@H]2CO[Si](c1ccccc1)(c1ccccc1)C(C)(C)C | < 4.00
16 | CC(C)(C)[Si](OC[C@H]1CCC[C@]12CCC[C@@H]1CCOC(=O)N12)(c1ccccc1)c1ccccc1 | 4.49
17 | CC(C)(C)[Si](OC[C@H]1CCC[C@]12CCC[C@@H]1CCC(CO)C(=O)N12)(c1ccccc1)c1ccccc1 (some centres not stated) | 4.20
